What follows are cell lines tested with CC1=C(N=C(N=C1N)[C@H](CC(=O)N)NC[C@@H](C(=O)N)N)C(=O)N[C@@H]([C@H](C2=CN=CN2)OC3C(C(C(C(O3)CO)O)O)OC4C(C(C(C(O4)CO)O)OC(=O)N)O)C(=O)N[C@H](C)[C@H]([C@H](C)C(=O)N[C@@H]([C@@H](C)O)C(=O)NCCC5=NC(=CS5)C6=NC(=CS6)C(=O)NCCC[S+](C)C)O [Bleomycin] + C[C@]1(O)C[C@@H](c2nc(-c3ccc4ccc(-c5ccccc5)nc4c3)c3c(N)nccn32)C1 [Linsitinib] (partner 1 µM) (assay: relative viability (nuclei count vs DMSO), 5 days (fraction); higher = more cells survive). Details: first compound 0.01 µM; main component drawn.
How it was run: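 Dosing by pin tool came one day after lung cancer cell lines were seeded in 1536-well plates, using either one drug or a fixed anchor-drug dose plus five library-drug doses (not always all listed) in √10 steps. After 5 days, nuclei were counted on 4× images. Relative viability is treated-well nuclei count divided by vehicle-well nuclei count, and values are medians of duplicate plates.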

Row | Cell Line | relative viability
1 | EBC-1 | 0.829
2 | NCI-H1703 | 1.06
3 | NCI-H1993 | 0.736
4 | NCI-H2087 | 0.717
5 | PC-14 | 0.578
6 | LCLC-103H | 1.03
7 | NCI-H596 | 0.79
8 | NCI-H2228 | 0.675
9 | EMC-BAC-2 | 0.746
10 | NCI-H2085 | 0.678
11 | Calu-6 | 0.741
12 | HCC-366 | 0.29
13 | NCI-H1666 | 0.677
14 | NCI-H647 | 0.649
15 | LK-2 | 0.418
16 | NCI-H2126 | 0.641
17 | SK-MES-1 | 0.923
18 | H3255 | 0.702
19 | COR-L23 | 0.696
20 | COR-L 105 | 0.765
21 | IA-LM | 0.588
22 | A549 | 0.514
23 | NCI-H1395 | 0.715
24 | NCI-H1299 | 0.879
25 | NCI-H1793 | 0.943

Same assay, conditions: first compound 0.03162 µM; main component drawn

Row | Cell Line | relative viability
26 | NCI-H838 | 0.314
27 | EBC-1 | 0.72
28 | NCI-H1703 | 0.639
29 | NCI-H1993 | 0.745
30 | NCI-H2087 | 0.977
31 | PC-14 | 0.51
32 | LCLC-103H | 1.06
33 | NCI-H596 | 0.73
34 | NCI-H2228 | 0.647
35 | EMC-BAC-2 | 0.696
36 | NCI-H2085 | 0.823
37 | Calu-6 | 0.6
38 | HCC-366 | 0.229
39 | NCI-H1666 | 0.543
40 | NCI-H647 | 0.487
41 | LK-2 | 0.373
42 | NCI-H2126 | 0.756
43 | SK-MES-1 | 0.974
44 | H3255 | 0.879
45 | COR-L23 | 0.559
46 | COR-L 105 | 0.798
47 | IA-LM | 0.476
48 | A549 | 0.472
49 | NCI-H441 | 0.57
50 | NCI-H1395 | 0.843
51 | NCI-H1299 | 0.978
52 | NCI-H1793 | 0.762

Same assay, conditions: first compound 0.1 µM; main component drawn

Row | Cell Line | relative viability
53 | NCI-H838 | 0.191
54 | EBC-1 | 0.78
55 | NCI-H1703 | 0.517
56 | NCI-H1993 | 0.693
57 | NCI-H2087 | 0.895
58 | PC-14 | 0.309
59 | LCLC-103H | 1.06
60 | NCI-H596 | 0.554
61 | NCI-H2228 | 0.714
62 | EMC-BAC-2 | 0.688
63 | NCI-H2085 | 0.632
64 | Calu-6 | 0.508
65 | HCC-366 | 0.171
66 | NCI-H1666 | 0.486
67 | NCI-H647 | 0.321
68 | LK-2 | 0.318
